B1: IL-4: interleukin-4, Genzyme; added to GM-CSF (protein, UniProt P05112 25-153, looked up)
Interleukin-4: HKCDITLQEIIKTLNSLTEQKTLCTELTVTDIFAASKNTTEKETFCRAATVLRQFYSHHEKDTRCLGATAQQFHRHKQLIRFLKRLDRNLWGLAGLNSCPVKEANQSTLENFLERLKTIMREKYSKCSS

How the values were obtained:
Format in all cases: cell-based, human
[1] = test system: adherent PBMNC; assay: S100 immunohistochemistry of plastic adherent cells cultured with non-cytokine additives; conditions: for percentages of S100+ cells: day 7, additive added to GM-CSF 50 ng/ml
Method: Immunocytochemical staining: PBS (phosphate buffered saline) was made by dissolving 5 PBS tablets into 1000 ml millipore water. Cytospin slides were soaked in PBS. […] Slides were rinsed with PBS one time. Non-specific binding sites were blocked by incubating with normal serum matching source of secondary antibody (i.e. if secondary antibody is biotinylated goat-anti-mouse, used normal goat serum) at room temp. for 15 min. in a humidified environment. Excess serum was shaken from slides and placed 100 ul of primary antibody on slide, making sure cells are covered with liquid and incubated in humidified environment, room temp, for one hour. Negative control slides were incubated with normal serum for this hour. Slides were rinsed 3 times with PBS. Slides were incubated with biotinylated antibody reactive against the primary antibody (i.e. if primary antibody is mouse-anti-human, use a biotinylated goat-anti-mouse antibody) for 1 hour in humidity. Slides were rinsed 3 times with PBS. Slides were incubated with streptavidin-peroxidase, 2 drops/slide, for 30 min. in humidity. Slides were rinsed 3 times with PBS.
Chromagen solution was made with 5 ml millipore water+2 drops of chromagen buffer+1 drop of concentrated chromagen+1 drop of substrate, and 4-5 drops were added to each slide. […] Slides were counterstained with hematoxylin for about 5 min, or until cell nuclei were stained purple. Cells were rinsed with tap water and allowed to air dry. Slides were covered with crystal mount and oven dried at 80 degrees for 15 min. Slides were allowed to cool, then coversliped with mounting medium.
(§1) Enrichment and Culture of Adherent Cells Using Polystyrene Tissue Culture Plates: PBMNC were resuspended in culture media (X-VIVO 15™+10% autologous serum) at 2×10^6 cells/ml. Cells were placed into 48 well polystyrene tissue culture plates […] and incubated for 2 hours in a 5% CO2, ambient O2, 37° C. humidified incubator. Non-adherent cells were removed from the plates then wells were rinsed with X-VIVO 15™ containing no serum. Cells remaining in the wells were adherent cells. These cells were cultured by adding 2 ml of X-VIVO 15™ to each well plus GM-CSF and IL-4 at final concentrations of 50 ng/ml and 1000 U/ml or the following: cAMP at 0.5 mM, dibutyryl cAMP at 0.1 mM, NaF at 0.25 mM, theophylline at 0.5 mM, PGE at 0.1 mM, Vitamin D3 at 2.5 uM, Vitamin E at 0.1%, Retinoic Acid at 10^−6 M, PMA at 1 pM, Linoleic Acid at 5 ug/ml, or Ca^++ Ionophore at 10 mM. Furthermore, cells were also cultured with the above non-cytokine additives plus GM-CSF at 50 ng/ml. Cells were cultured in a 5% CO2, ambient O2, 37° C. humidified incubator for 7 days.
(§2) Cytospin slide preparation, Wright-Geimsa and immunohistochemical staining of the cultured cells were conducted as described in Example 1 and 2 above. Mixed lymphocyte reactions (MLR's) were setup using T cells (responders) and dendritic cell enriched cultures (stimulators) from bulk PBMNC cultures, as described above in Example 1.
(§3) Results: In the set of experiments using plastic adherent cells grown in polystyrene tissue culture plates, a Day 0 analysis of the cells was not performed. However, these cultures were analyzed for the presence of DC on days 4 and 7. Analysis perfomed were cell counts, viability via propidium iodide, morphology under Wright-Geimsa staining, and immunohistochemical staining using an anti-S100 antibody.

[2] = test system: adherent PBMNC; assay: Cell counts and viability of plastic adherent cells cultured with non-cytokine additives in polystyrene plates; set-up: % VIABLE: concentration or dose not given beside the values; conditions: for % VIABLE: propidium iodide
Method: Viability Determination: Prior to acquisition, 5 ul propidium iodide (PI) was added to each tube for use as a viability check. The cells were vortexed and acquired within 10 min of PI addition.
as §1, §3

[3] = test system: adherent PBMNC; assay: DC morphology (Wright-Geimsa) of plastic adherent cells cultured with non-cytokine additives
Method: Cytofunnels were attached to microscope slides. 50,000 to 100,000 cells were removed from each culture and resuspended in approximately 100 to 200 ul of PBS-CMF. Slides were placed in the Cytospin® centrifuge and spun at 100 rpm for 4 min. Cytofunnels were removed from the slides and the slides were air dried for 1 minute. Ten drops of Wright-Geimsa stain were placed onto each slide and allowed to fix for 1 to 2 minutes. Ten drops of water were added to each slide and allowed to sit for 2 to 4 minutes. The slides were rinsed and air dried.
Reading of Cytospin Slides: Slides were read under phase contrast microscopy, 40× and 60× oil magnification. One hundred cells were identified and characterized morphologically as either dendritic cells or non-dendritic cells (lymphocytes and monocyte, or CD34+-derived cells in those cases). Digital images were taken using a color monitor and color video printer.
as §1, §2, §3

Row | Molecule | % S100+ ([1]; Day 4, with GM-CSF present) [%] | % S100+ ([1]; Day 4, without GM-CSF) [%] | % S100+ ([1]; Day 7, with GM-CSF present) [%] | % S100+ ([1]; Day 7, without GM-CSF) [%] | TOTAL CELLS ([2]; Day 4, with GM-CSF present) [E + 05] | % VIABLE ([2]; Day 4, with GM-CSF present) [%] | TOTAL CELLS ([2]; Day 4, without GM-CSF) [E + 05] | % VIABLE ([2]; Day 4, without GM-CSF) [%] | TOTAL CELLS ([2]; Day 7, with GM-CSF present) [E + 05] | % VIABLE ([2]; Day 7, with GM-CSF present) [%] | TOTAL CELLS ([2]; Day 7, without GM-CSF) [E + 05] | % VIABLE ([2]; Day 7, without GM-CSF) [%] | % DC ([3]; Day 4, with GM-CSF present) [%] | % DC ([3]; Day 4, without GM-CSF) [%] | % DC ([3]; Day 7, with GM-CSF present) [%] | % DC ([3]; Day 7, without GM-CSF) [%] | percentages of S100+ cells [1]
1 | Cc1c(C)c2c(c(C)c1O)CCC(C)(CCCC(C)CCCC(C)CCCC(C)C)O2 (mixture of isomers) [Vit E] | 26.00 | 19.00 | 19.00 | 11.00 | 1.38 | 97.48 | 1.64 | 78.65 | 1.05 | 94.21 | 1.75 | 71.91 | 4.50 | 2.50 | 6.00 | 3.00 | –
2 | CNc1ccc2oc(CC3OC4(CCC3C)OC(C(C)C(=O)c3ccc[nH]3)C(C)CC4C)nc2c1C(=O)O (stereo not drawn) [Ca + + Iono] | 20.00 | – | – | 29.00 | 1.66 | 96.23 | – | – | – | – | 1.54 | 84.02 | 9.50 | – | – | 6.00 | –
3 | [F-].[Na+] [NaF, Sodium Fluoride] | 7.00 | 0.00 | 5.00 | 2.50 | 1.90 | 67.04 | 2.19 | 72.46 | 1.44 | 30.61 | 2.18 | 44.31 | 0.00 | 0.00 | 0.00 | 0.00 | –
4 | CCCCC[C@H](O)/C=C/[C@H]1[C@H](O)CC(=O)[C@@H]1CCCCCCC(=O)O [PGE, Prostaglandin E1] | 6.00 | 0.00 | 26.50 | 5.00 | 2.35 | 92.40 | 2.54 | 71.62 | 1.84 | 60.29 | 2.91 | 59.78 | 5.00 | 3.00 | 5.50 | 0.00 | –
5 | CCCCCCCCCCCCCC(=O)O[C@@H]1[C@@H](C)[C@@]2(O)[C@@H](C=C(CO)C[C@]3(O)C(=O)C(C)=C[C@@H]23)[C@@H]2C(C)(C)[C@]12OC(C)=O [PMA, Phorbol Myristate Acetate] | 20.00 | 4.00 | 26.50 | 6.50 | 1.45 | 97.60 | 1.64 | 77.17 | 1.04 | 95.15 | 1.51 | 82.20 | 4.50 | 1.00 | 0.00 | 1.00 | –
6 | CC1=C(/C=C/C(C)=C/C=C/C(C)=C/C(=O)O)C(C)(C)CCC1 [Ret Acid] | 9.00 | 7.00 | 14.00 | 7.00 | 1.21 | 95.30 | 1.48 | 60.67 | – | 88.52 | 1.66 | 45.17 | 1.50 | 10.00 | 4.00 | 0.00 | –
7 | C=C1CCC(O)CC1=CC=C1CCCC2(C)C1CCC2C(C)CCCC(C)C (stereo not drawn) [Vit D3] | 8.00 | 5.50 | 39.00 | 16.00 | 1.95 | 95.86 | 2.37 | 76.06 | 1.64 | 67.44 | 1.82 | 75.13 | 3.00 | 1.50 | 5.00 | 0.50 | –
8 | Nc1ncnc2c1ncn2[C@@H]1O[C@@H]2COP(=O)(O)O[C@H]2[C@H]1O [cAMP, Cyclic Adenosine Monophosphate] | 41.00 | 10.50 | 47.00 | 10.00 | 2.02 | 87.60 | 1.86 | 76.37 | 1.56 | 60.51 | 2.08 | 19.89 | 3.00 | 0.00 | 0.00 | 0.50 | greatest percentages of S100+ cells
9 | CCCC(=O)Nc1ncnc2c1ncn2[C@@H]1O[C@@H]2COP(=O)(O)O[C@H]2[C@H]1OC(=O)CCC [dibutyryl cAMP, Dibutyryl cAMP] | 17.00 | 6.00 | 14.00 | 8.00 | 1.74 | 85.86 | 2.18 | 71.00 | 1.37 | 61.25 | 2.59 | 58.87 | 2.50 | 0.00 | 2.50 | 0.00 | –
10 | Cn1c(=O)c2[nH]cnc2n(C)c1=O [theophylline, Theophylline] | 8.50 | 6.00 | 11.00 | 7.50 | 1.34 | 88.75 | 2.12 | 75.27 | 9.65 | 59.55 | 1.81 | 56.49 | 6.50 | 0.50 | 3.50 | 0.00 | –
11 | B1 | – | – | – | – | – | – | – | – | – | – | – | – | – | – | – | – | greatest percentages of S100+ cells

— US6458585B1, “Cytokine-free culture of dendritic cells” (Nexell Therapeutics Inc., priority 1996, dated 2002)
